Experimental data taken from ChEMBL document CHEMBL3272273, “Synthesis and pharmacological activity and some derivatives of 1-phenyl-1,2,3,4-tetrahydro-5H-1,4-benzodiazepin-5-one” (J Med Chem, 1978).

Assays:
[1] = system: Mus musculus; experiment: Toxicity in albino mouse assessed as body-temperature variation at 10 mg/kg, ip measured 20 mins after dl-amphetamine sulfate injection dosed 30 mins before dl-amphetamine sulfate injection; format: organism-based; parameters: dose 10 mg/kg, route intraperitoneal; conditions: in vivo
[2] = system: Mus musculus; experiment: Anticonvulsant activity in ip dosed albino mouse assessed as dose causing >25% increase in maximal electroshock-induced maximal extensor seizure relative to untreated control; format: functional
[3] = system: Ileum; experiment: Antiacetylcholine activity in guinea pig ileum assessed as dose required to decrease 50 to 100% of acetylcholine-induced effect treated 5 mins before acetylcholine addition; format: functional, Cavia porcellus
[4] = system: Mus musculus; experiment: Toxicity in ip dosed albino mouse assessed as dose required to increase 25% of dl-amphetamine sulfate-induced death; format: organism-based; conditions: in vivo
[5] = system: Mus musculus; experiment: Toxicity in ip dosed albino mouse assessed as barbiturate-induced sleep by measuring loss of righting reflex relative to control; format: organism-based; conditions: in vivo
[6] = system: Mus musculus; experiment: Neurotoxicity in albino mouse at 10 mg/kg, po up to 5 mins by rotorod test relative to control; format: toxicity, organism-based; parameters: dose 10 mg/kg, route oral; conditions: in vivo
[7] = Antitrypatamine activity in isolated Wistar rat caudal artery assessed as dose required to decrease 20 to 50% of […]-induced effect per 6 mL/min after 15 mins; format: functional
[8] = Antinoradrenaline activity in isolated Wistar rat caudal artery assessed as dose required to decrease 20 to 50% of noradrenaline-induced effect per 6 mL/min after 15 mins; format: functional
[9] = system: Ileum; experiment: Antihistamine activity in guinea pig ileum assessed as dose required to decrease 50 to 100% of histamine induced effect treated 5 mins before histamine addition; format: functional, Cavia porcellus
[10] = system: Mus musculus; experiment: Toxicity in ip dosed mouse assessed as sedative action; format: organism-based; conditions: in vivo
[11] = system: Mus musculus; experiment: Toxicity in ip dosed albino mouse assessed as barbiturate-induced sleep by measuring loss of righting reflex administered 45 mins before barbiturate challenge relative to control; format: organism-based; conditions: in vivo, 0.75 h
[12] = Acute toxicity in ip dosed albino mouse measured within 24 hrs; format: organism-based; conditions: in vivo
[13] = system: Mus musculus; experiment: Toxicity in albino mouse assessed as translatory movements at 10 mg/kg, ip relative to control; format: organism-based; parameters: dose 10 mg/kg, route intraperitoneal; conditions: in vivo
[14] = system: Mus musculus; experiment: Toxicity in albino mouse assessed as translatory movements at 5 mg/kg, ip relative to control; format: organism-based; parameters: dose 5 mg/kg, route intraperitoneal; conditions: in vivo
[15] = system: Mus musculus; experiment: Toxicity in albino mouse assessed as body-temperature variation at 5 mg/kg, ip measured 20 mins after dl-amphetamine sulfate injection dosed 30 mins before dl-amphetamine sulfate injection; format: organism-based; parameters: dose 5 mg/kg, route intraperitoneal; conditions: in vivo
[16] = system: Mus musculus; experiment: Neurotoxicity in albino mouse at 5 mg/kg, po up to 5 mins by rotorod test relative to control; format: toxicity, organism-based; parameters: dose 5 mg/kg, route oral; conditions: in vivo
[17] = system: Mus musculus; experiment: Anticonvulsant activity in ip dosed albino mouse assessed as dose causing total prevention of maximal electroshock-induced maximal extensor seizure; format: functional

Row | SMILES | temperature change [1] | Activity [2] | Activity [3] | Activity [4] | Activity [5] | Activity [6] | Activity [7] | Activity [8] | Activity [9] | Activity [10] | Activity [11] | LD50 at 24 h [12] | Activity [13] | Activity [14] | temperature change [15] | Activity [16] | Activity [17]
1 | CN(C)CCN1CCN(c2ccccc2)c2ccccc2C1=O | 0.6 °C | 50 mg/kg | 100 µg/mL | 10 mg/kg | 4% | -6% | 50 µg/min | 200 µg/min | 50 µg/mL | Non-toxic | 15% | 100 mg/kg | -30% |  |  |  | 
2 | CN(C)CCCN1CCN(c2ccccc2)c2ccccc2C1=O |  | 10 mg/kg | 100 µg/mL |  | 35% | -12% | 50 µg/min | 160 µg/min | 100 µg/mL | Non-toxic | 10% | 116 mg/kg | -15% |  |  |  | 
3 | CC(CN(C)C)N1CCN(c2ccccc2)c2ccccc2C1=O (stereo unspecified) |  | 12 mg/kg | 50 µg/mL |  | 20% | -25% | 50 µg/min | 160 µg/min | 50 µg/mL | Non-toxic | 12.5% | 130 mg/kg | 4% |  |  |  | 
4 | CCN(CC)CCN1CCN(c2ccccc2)c2ccccc2C1=O |  | 5 mg/kg | 100 µg/mL |  | 40% | 11% | 50 µg/min | 80 µg/min | 100 µg/mL | Non-toxic | 10% | 75 mg/kg | 1% |  |  |  | 
5 | O=C1c2ccccc2N(c2ccccc2)CCN1CCN1CCCC1 | -0.2 °C |  | 100 µg/mL |  | 60% | -32% | 50 µg/min | 15 µg/min | 50 µg/mL | Non-toxic | 20% | 80 mg/kg | -10% |  |  |  | 
6 | O=C1c2ccccc2N(c2ccccc2)CCN1CCN1CCCCC1 | 1.4 °C | 25 mg/kg | 100 µg/mL | 10 mg/kg | 45% | -27% | 25 µg/min | 25 µg/min | 50 µg/mL | Non-toxic | 20% | 75 mg/kg | -11% |  |  |  | 
7 | C[N+](C)(C)CCN1CCN(c2ccccc2)c2ccccc2C1=O.[I-] |  | 15 mg/kg | 50 µg/mL | 5 mg/kg | -40% |  | 50 µg/min | 50 µg/min | 50 µg/mL | Non-toxic | 15% | 35 mg/kg |  | 20% | -0.3 °C | -21% | 
8 | C[N+](C)(C)CCCN1CCN(c2ccccc2)c2ccccc2C1=O.[I-] |  | 10 mg/kg | 50 µg/mL | 5 mg/kg | -25% |  | 50 µg/min | 100 µg/min | 50 µg/mL | Non-toxic | 10% | 50 mg/kg |  | -5% | 1.2 °C | 70% | 
9 | CC(C[N+](C)(C)C)N1CCN(c2ccccc2)c2ccccc2C1=O.[I-] (stereo unspecified) |  | 5 mg/kg | 200 µg/mL |  | -15% |  | 15 µg/min | 50 µg/min | 50 µg/mL | Non-toxic | 5% | 15 mg/kg |  | 1% | 0.3 °C | -7% | 
10 | CC[N+](C)(CC)CCN1CCN(c2ccccc2)c2ccccc2C1=O.[I-] |  | 5 mg/kg | 50 µg/mL | 3 mg/kg | -40% |  | 15 µg/min | 50 µg/min | 50 µg/mL | Non-toxic | 5% | 15 mg/kg |  | -3% | 1.4 °C | 20% | 
11 | C[N+]1(CCN2CCN(c3ccccc3)c3ccccc3C2=O)CCCC1.[I-] |  | 3 mg/kg | 100 µg/mL | 3 mg/kg | 30% | 11% | 50 µg/min | 5 µg/min | 50 µg/mL | Non-toxic | 5% | 10 mg/kg |  | -8% | 1.6 °C |  | 
12 | C[N+]1(CCN2CCN(c3ccccc3)c3ccccc3C2=O)CCCCC1.[I-] |  |  | 50 µg/mL |  | 20% | 8% | 50 µg/min | 25 µg/min | 200 µg/mL | Non-toxic | 3% | 15 mg/kg |  | -20% | 0.9 °C |  | 
13 | O=C1NCCN(c2ccc([N+](=O)[O-])cc2)c2ccc([N+](=O)[O-])cc21 | 1 °C |  | 200 µg/mL |  | 40% | -45% |  |  | 200 µg/mL | Non-toxic | 50% | > 400 mg/kg | -21% |  |  |  | 
14 | Nc1ccc2c(c1)C(=O)NCCN2c1ccc([N+](=O)[O-])cc1 | 1.2 °C |  | 50 µg/mL |  | 70% | 39% |  |  | 200 µg/mL | Non-toxic | 50% | > 400 mg/kg | -15% |  |  |  | 
15 | Nc1ccc(N2CCNC(=O)c3ccccc32)cc1 | 1.4 °C |  | 200 µg/mL |  | 90% | -20% |  |  | 200 µg/mL | Non-toxic | 50% | > 400 mg/kg | 2% |  |  |  | 
16 | CNC1=Nc2ccc(Cl)cc2C(c2ccccc2)=[N+]([O-])C1 [CHLORDIAZEPOXIDE] |  |  | 3 µg/mL |  |  | -50% | 20 µg/min | 18 µg/min | 3 µg/mL | Non-toxic |  | 780 mg/kg | -40% |  |  |  | 90 mg/kg
17 | CN1C(=O)CN=C(c2ccccc2)c2cc(Cl)ccc21 [DIAZEPAM] |  |  |  |  |  | -40% |  |  | 4 µg/mL | Non-toxic |  |  | -50% |  |  |  | 50 mg/kg
